Columns and labels:
patients = assay: Clinical study of vaccine IMA901 with or without prior cyclophosphamide; type: in vivo, human
From the text: (§1) Some patients received a prior TKI therapy with sunitinib or sorafenib, others a prior cytokine therapy with interferon or interleukin.
Both patient groups were followed up for progression-free survival (PFS) and overall survival (OS).

regulatory T cells = settings: low-dose cyclophosphamide 300 mg/m^2 single infusion before vaccination
From the text: Absolute counts are shown in (A), percent change from baseline is shown in (B).
as §1

HLA-A*02 = assay: HLA-restriction: binding to HLA-A*02; design: species or system human
HLA-A*68 = assay: HLA-restriction: binding to HLA-A*68; design: species or system human
HLA-A*26 = assay: HLA-restriction: binding to HLA-A*26; design: species or system human
CTL = settings: HLA-A2+ healthy donors, colon cancer and mantle cell lymphoma patients; CD40-activated B cells as APCs; cited from earlier work
cancer patients = assay: Prevaccination T cell responses in cancer patients; type: in vivo, human; settings: certain cancer patients
From the text: A further aspect of the invention then relates to the use of the peptide or combination according to the invention as a diagnostic tool in the diagnosis of cancer. Basically, the presence of the peptides or a combination thereof in the patient indicates cancer. […] Again, for the diagnosis, the peptides can be labeled. Furthermore, antibodies against the peptides (or combinations) can also be used. The diagnosis can be performed in vivo or in vitro.

HLA A*0201 = HLA A*0201 (Homo sapiens, UniProt P04439, D140Y/D185E/D98H/E176V/E277Q/G131W/G231S/I119V/I121R/I166T/I218V/L300P/L318F/N151K/N90K/P208A/P217A/Q86G/Q94H/R138H/R169H/T345S); assay: ELISA-based HLA binding method (Sylvester-Hvid et al., 2002)
[1] = test system: HLA-A*02 positive tumor cells endogenously expressing Cyclin D1; settings: allo-restricted T cells of HLA-A2-negative donors; cited from earlier work
HLA class-II = assay: HLA-restriction: binding to HLA class-II; design: species or system human

Question: With O=P1(N(CCCl)CCCl)NCCCO1 (stereo not drawn) [cyclophosphamide, reference compound] as the compound, how does the “outcome of the treatment using the vaccine after prior low-dose cyclophosphamide” value (patients; single infusion 300 mg/m^2 before IMA901) read?
Answer: significantly improved

Question: And the “number of regulatory T cells” value (regulatory T cells)?
Answer: reduced

Question: Which “binding to HLA-A*02” value (HLA-A*02) does the source give for “ALLESSLRQA (listed as Homo sapiens) [CCN-007, cyclin D1-derived peptide, aa 253-262]” here?
Answer: moderate binder

Question: Which “binding to HLA-A*68” value (HLA-A*68) does the source give for ETIPLTAEKL [CCN-006] here?
Answer: seems to be a HLA-A*68 binder

Question: Which “binding to HLA-A*02” value (HLA-A*02) does the source give for “EVFPLAMNY (listed as Homo sapiens) [CCN-004, cyclin D1-derived peptide, aa 76-84]” here?
Answer: practically no binding

Question: What about the “binding to HLA-A*26” value (HLA-A*26) of the same compound?
Answer: high binding

Question: Which results are given for “LLGATCMFV (listed as Homo sapiens) [CCN-001, cyclin D1-derived peptide, aa 101-109]”?
Answer: generation of CTL specific for the epitope (CTL): could be generated; survival of patients responding against CCN-001 versus non-CCN-001-responding patients (patients; all vaccinated patients): significant longer survival; favorable effect of T cell response against CCN-001 on survival (patients; patient group pretreated with cyclophosphamide): even more evident; prevaccination responses (cancer patients): found; binding to HLA A*0201 (HLA A*0201): Good binding; lysis of Cyclin D1 expressing HLA-A*02 positive tumor cells by T cell clones recognizing the peptide [1]: could lyze

Question: For “NPPSMVAAGSVVAAV (listed as Homo sapiens) [CCN-003, cyclin D1-derived peptide, aa 198-212]”, which HLA restriction (HLA class-II) is on record?
Answer: DRB1*0401 restricted

Question: What about the “binding to HLA class-II” value (HLA class-II) of the same compound?
Answer: binds

Question: For “YLSGANLNL (listed as Homo sapiens) [CEA-004]”, which prevaccination responses (cancer patients) is on record?
Answer: found

— patent US9023803B2, “Cancer therapy based on tumor associated antigens derived from cyclin D1” (Immatics Biotechnologies GmbH, priority 2010, dated 2015)
